Laboratory results: patent publication US8420657B2 (Novartis AG, priority 2008, dated 2013)
pIC50: −log10 of the molar value.

What follows are compounds tested against T1, GST-JAK2(808-1132) (Homo sapiens, UniProt O60674) (assay: JAK2 kinase assay (Caliper mobility shift, LabChip 3000)).
T1 construct: GST-JAK2(808-1132); purchased Invitrogen (Carlsbad, USA) #4288
Format: biochemical
Description: All four kinases of the JAK/TYK-kinase family were used as purified recombinant GST-fusion proteins, containing the active kinase domains. GST-JAK1 (866-1154), GST-JAK3(811-1124), and GST-TYK2(888-1187) were expressed and purified by affinity chromatography at the EPK biology unit. GST-JAK2(808-1132) was purchased from Invitrogen (Carlsbad, USA, #4288).
The kinase assays were based on the Caliper mobility shift assay using the LabChip 3000 systems. This technology is similar to capillary electrophoresis and uses charge driven separation of substrate and product in a microfluidic chip.
All kinase reactions were performed in 384 well microtiter plates in a total reaction volume of 18 μl. The assay plates were prepared with 0.1 μl per well of test compound in the appropriate test concentration, as described under the section “preparation of compound dilutions”. The reactions were started by combining 9 μl of substrate mix (consisting of peptide and ATP) with 9 μl of kinase dilution. The reactions were incubated for 60 minutes at 30° C. and stopped by adding 70 μl of stop buffer (100 mM Hepes, 5% DMSO, 0.1% Coating reagent, 10 mM EDTA, 0.015% Brij 35).
Fluorescently labeled synthetic peptides were used as substrates in all reactions. A peptide derived from the sequence of IRS-1(IRS-1 peptide, SEQ ID NO: 1 FITC-Ahx-KKSRGDYMTMQIG-NH2) was used for JAK1 and TYK2 and a peptide named JAK3tide SEQ ID NO: 2 (FITC-GGEEEEYFELVKKKK-NH2) for JAK2 and JAK3. Specific assay conditions are described in Table1:
The terminated reactions were transferred to the Caliper LabChip 3000 reader and the turnover of each reaction was measured by determining the substrate/product ratio.
Test compounds were dissolved in DMSO (10 mM) and transferred into 1.4 mL flat bottom or V-shaped Matrix tubes carrying a unique 2D matrix chip by individual compound hubs. The numbers of these chips were distinctively linked to the individual compound identification numbers. The stock solutions were stored at −20° C. if not used immediately. For the test procedure the vials were defrosted and identified by a scanner whereby a working sheet was generated that guided the subsequent working steps. Compound dilutions were made in 96 well plates. This format enabled the assay of maximally 40 individual test compounds at 8 concentrations (single points) including 4 reference compounds. The dilution protocol included the production of pre-dilution plates, master plates and assay plates:
Pre-dilution plates: 96 polypropylene well plates were used as pre-dilution plates. A total of 4 pre-dilution plates were prepared including 10 test compounds each on the plate positions A1-A10, one standard compound at A11 and one DMSO control at A12. All dilution steps were done on a HamiltonSTAR robot.
Master plates: 100 μL of individual compound dilutions including standard compound and controls of the 4 “pre-dilution plates” were transferred into a 384 “master plate” including the following concentrations 1,820, […], 182, 54.6, 18.2, 5.46, 1.82 and 0.546 μM, respectively in 90% of DMSO.
Assay plates: Identical assay plates were then prepared by pipetting 100 nL each of compound dilutions of the master plates into 384-well “assay plates”. In the following the compounds were mixed with 9 μL of assays components plus 9 μL enzyme corresponding to a 1:181 dilution steps enabling the final concentration of 10, 3.0, 1.0, 0.3, 0.1, 0.03, 0.01 and 0.003 μM, respectively. The preparation of the master plates were handled by the Matrix PlateMate Plus robot and replication of assay plates by the HummingBird robot.

T1 sequence (O60674 808-1132): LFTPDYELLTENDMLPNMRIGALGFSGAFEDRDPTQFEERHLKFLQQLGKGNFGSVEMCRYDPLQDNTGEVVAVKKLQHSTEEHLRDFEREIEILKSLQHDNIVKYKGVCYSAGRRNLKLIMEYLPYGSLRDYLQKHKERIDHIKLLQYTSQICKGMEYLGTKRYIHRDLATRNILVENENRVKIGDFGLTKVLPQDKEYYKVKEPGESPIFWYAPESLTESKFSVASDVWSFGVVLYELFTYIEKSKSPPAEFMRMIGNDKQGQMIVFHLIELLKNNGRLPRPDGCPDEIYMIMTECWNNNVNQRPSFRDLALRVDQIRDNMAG

Row | pIC50 | Structure (SMILES)
1 | > 8.52 | CC(=O)N1CCN(Cc2ccc(Nc3ncc4ccn(-c5cc(F)c(CN6CCOCC6)c(F)c5)c4n3)cc2)CC1 [Example 318, 1-(4-{4-[7-(3,5-Difluoro-4-morpholin-4-ylmethyl-phenyl)-7H-pyrrolo[2,3-d]pyrimidin-2-ylamino]-benzyl}-piperazin-1-yl)-ethanone]
2 | 8.29 | Cc1cnn(Cc2cc(Nc3ncc4ccn(-c5cc(F)c(CN6CCOCC6)c(F)c5)c4n3)ccc2C)c1 [Example 481, [7-(3,5-Difluoro-4-morpholin-4-ylmethyl-phenyl)-7H-pyrrolo[2,3-d]pyrimidin-2-yl]-[4-methyl-3-(4-methyl-pyrazol-1-ylmethyl)-phenyl]-amine]
3 | 8.44 | COc1cc(Nc2ncc3ccn(-c4ccc(S(C)(=O)=O)cc4)c3n2)cc(OC)c1 [Example 23, (3,5-Dimethoxy-phenyl)-[7-(4-methanesulfonyl-phenyl)-7H-pyrrolo[2,3-d]pyrimidin-2-yl]-amine]
4 | 8.32 | CC(C)(C)OC(=O)N1CCN(C(=O)c2ccc(Nc3ncc4ccn(-c5ccc(S(C)(=O)=O)cc5)c4n3)cc2)CC1 [Example 69, 4-{4-[7-(4-Methanesulfonyl-phenyl)-7H-pyrrolo[2,3-d]pyrimidin-2-ylamino]-benzoyl}-piperazine-1-carboxylic acid tert-butyl ester]
5 | 7.85 | O=C(c1ccc(-n2ccc3cnc(Nc4ccc(CN5CCN(C6CC6)CC5)cc4)nc32)cc1F)N1CCOCC1 [Example 330, (4-{2-[4-(4-Cyclopropyl-piperazin-1-ylmethyl)-phenylamino]-pyrrolo[2,3-d]pyrimidin-7-yl}-2-fluoro-phenyl)-morpholin-4-yl-methanone]
6 | 7.64 | CN(C)c1ccc(Nc2ncc3ccn(-c4ccc(S(C)(=O)=O)cc4)c3n2)cc1 [Example 21, N-[7-(4-Methanesulfonyl-phenyl)-7H-pyrrolo[2,3-d]pyrimidin-2-yl]-N′,N′-dimethyl-benzene-1,4-diamine]
7 | ≥ 8.52 | Cc1ccc(Nc2ncc3ccn(-c4cc(F)c(CN5CCNC(=O)C5)c(F)c4)c3n2)cc1CN1CCOCC1 [Example 344, 4-{2,6-Difluoro-4-[2-(4-methyl-3-morpholin-4-ylmethyl-phenylamino)-pyrrolo[2,3-d]pyrimidin-7-yl]-benzyl}-piperazin-2-one]
8 | 7.62 | O=C(c1c(F)cc(-n2ccc3cnc(Nc4ccnc(N5CCNC6(CC6)C5)c4)nc32)cc1F)N1CCOCC1 [Example 281, (4-{2-[2-(4,7-Diaza-spiro[2.5]oct-7-yl)-pyridin-4-ylamino]-pyrrolo[2,3-d]pyrimidin-7-yl}-2,6-difluoro-phenyl)-morpholin-4-yl-methanone]
9 | 7.37 | CN1CCN(c2ccc(Nc3ncc4ccn(-c5cc(F)c(C#N)c(F)c5)c4n3)cn2)CC1 [Example 445, 2,6-Difluoro-4-{2-[6-(4-methyl-piperazin-1-yl)-pyridin-3-ylamino]-pyrrolo[2,3-d]pyrimidin-7-yl}-benzonitrile]
10 | 8.31 | CS(=O)(=O)c1ccc(-n2ccc3cnc(Nc4cccc(OCCN5CCOCC5)c4)nc32)cc1 [Example 35, [7-(4-Methanesulfonyl-phenyl)-7H-pyrrolo[2,3-d]pyrimidin-2-yl]-[3-(2-morpholin-4-yl-ethoxy)-phenyl]-amine]

Continued, compound first:

Row | Structure (SMILES) | pIC50
11 | CS(=O)(=O)c1ccc(-n2ccc3cnc(Nc4ccc(N5CCNCC5)cc4)nc32)cc1 [Example 37, [7-(4-Methanesulfonyl-phenyl)-7H-pyrrolo[2,3-d]pyrimidin-2-yl]-(4-piperazin-1-yl-phenyl)-amine] | > 8.52
12 | Cc1ccc(Nc2ncc3ccn(-c4ccc(C(=O)N5CCOCC5)cc4)c3n2)cc1CN1CCN(C)CC1 [Example 437, (4-{2-[4-Methyl-3-(4-methyl-piperazin-1-ylmethyl)-phenylamino]-pyrrolo[2,3-d]pyrimidin-7-yl}-phenyl)-morpholin-4-yl-methanone] | 8.48
13 | CN1CCN(C(=O)c2ccc(Nc3ncc4ccn(-c5ccc(S(C)(=O)=O)cc5)c4n3)cc2)CC1 [Example 28, {4-[7-(4-Methanesulfonyl-phenyl)-7H-pyrrolo[2,3-d]pyrimidin-2-ylamino]-phenyl}-(4-methyl-piperazin-1-yl)-methanone] | 8.40
14 | CS(=O)(=O)c1ccc(-n2ccc3cnc(Nc4ccc5c(c4)OC(F)(F)C(F)(F)O5)nc32)cc1 [Example 14, [7-(4-Methanesulfonyl-phenyl)-7H-pyrrolo[2,3-d]pyrimidin-2-yl]-(2,2,3,3-tetrafluoro-2,3-dihydro-benzo[1,4]dioxin-6-yl)-amine] | 5.68
15 | CC(C)(C)OC(=O)N1CCC(n2cc(Nc3ncc4ccn(-c5cc(F)c(CN6CCOCC6)c(F)c5)c4n3)cn2)CC1 [Example 320, 4-{4-[7-(3,5-Difluoro-4-morpholin-4-ylmethyl-phenyl)-7H-pyrrolo[2,3-d]pyrimidin-2-ylamino]-pyrazol-1-yl}-piperidine-1-carboxylic acid tert-butyl ester] | 8.02
16 | COC(C)c1ccc(-n2ccc3cnc(Nc4ccc(N5CCN(C)CC5)nc4)nc32)cc1 (racemic) [Example 449, {7-[4-(1-Methoxy-ethyl)-phenyl]-7H-pyrrolo[2,3-d]pyrimidin-2-yl}-[6-(4-methyl-piperazin-1-yl)-pyridin-3-yl]-amine] | ≥ 8.52
17 | CC(C)(C)OC(=O)N1CCCC1c1ccc(Nc2ncc3ccn(-c4ccc(S(C)(=O)=O)cc4)c3n2)cc1 (stereo not shown) [Example 46, 2-{4-[7-(4-Methanesulfonyl-phenyl)-7H-pyrrolo[2,3-d]pyrimidin-2-ylamino]-phenyl}-pyrrolidine-1-carboxylic acid tert-butyl ester] | 7.42
18 | COc1ccc(Nc2ncc3ccn(-c4ccc(S(C)(=O)=O)cc4)c3n2)cc1OC [Example 5, (3,4-Dimethoxy-phenyl)-[7-(4-methanesulfonyl-phenyl)-7H-pyrrolo[2,3-d]pyrimidin-2-yl]-amine] | > 8.52
19 | CN1CCN(c2ncc(Nc3ncc4ccn(-c5ccc(S(C)(=O)=O)cc5)c4n3)cn2)CC1 [Example 276, [7-(4-Methanesulfonyl-phenyl)-7H-pyrrolo[2,3-d]pyrimidin-2-yl]-[2-(4-methyl-piperazin-1-yl)-pyrimidin-5-yl]-amine] | 6.92
20 | CCN1CCN(c2ccc(Nc3ncc4ccn(-c5ccc(CN6CCOCC6)c(F)c5)c4n3)cc2C)CC1 [Example 285, [4-(4-Ethyl-piperazin-1-yl)-3-methyl-phenyl]-[7-(3-fluoro-4-morpholin-4-ylmethyl-phenyl)-7H-pyrrolo[2,3-d]pyrimidin-2-yl]-amine] | > 8.52
21 | Fc1cc(-n2ccc3cnc(Nc4ccccn4)nc32)cc(F)c1CN1CCOCC1 [Example 209, [7-(3,5-Difluoro-4-morpholin-4-ylmethyl-phenyl)-7H-pyrrolo[2,3-d]pyrimidin-2-yl]-pyridin-2-yl-amine] | 6.90
22 | O=C(c1c(F)cc(-n2ccc3cnc(Nc4ccc(CN5CCOCC5)cc4)nc32)cc1F)N1CCOCC1 [Example 206, {2,6-Difluoro-4-[2-(4-morpholin-4-ylmethyl-phenylamino)-pyrrolo[2,3-d]pyrimidin-7-yl]-phenyl}-morpholin-4-yl-methanone] | > 8.52
23 | CS(=O)(=O)c1ccc(-n2ccc3cnc(Nc4ccc5c(c4)OCO5)nc32)cc1 [Example 15, Benzo[1,3]dioxol-5-yl-[7-(4-methanesulfonyl-phenyl)-7H-pyrrolo[2,3-d]pyrimidin-2-yl]-amine] | 8.07
24 | COc1cc(Nc2ncc3ccn(-c4ccc(S(=O)(=O)N(C)C)cc4)c3n2)cc(OC)c1OC [Example 10, N,N-Dimethyl-4-[2-(3,4,5-trimethoxy-phenylamino)-pyrrolo[2,3-d]pyrimidin-7-yl]-benzenesulfonamide] | > 8.52
25 | Cc1ccc(Nc2ncc3ccn(-c4cc(F)c(CN5CCOCC5)c(F)c4)c3n2)cc1CN1CCNC2(CC2)C1 [Example 373, [3-(4,7-Diaza-spiro[2.5]oct-7-ylmethyl)-4-methyl-phenyl]-[7-(3,5-difluoro-4-morpholin-4-ylmethyl-phenyl)-7H-pyrrolo[2,3-d]pyrimidin-2-yl]-amine] | 8.37
